Measured values taken from patent US20240262826A1, “WILD TYPE KIT INHIBITORS” (Blueprint Medicines Corporation, priority 2022, published 2024).

Tests used:
wild type c-kit = wild type c-kit (Homo sapiens (Human), UniProt P10721); test: PathScan phospho c-kit (Tyr719) sandwich ELISA in SCF-stimulated M-07e cells (pKIT assay); type: cell-based; details: ELISA assay (values not marked *)
Procedure, shortened: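 Serum- and GM-CSF-starved M-07e cells (4 h) pretreated 60 min at 37 °C with an 8-point compound series in duplicate (0.25% DMSO), then stimulated with human SCF (500 ng/mL stock) 10 min at room temperature. Lysate c-kit Tyr719 phosphorylation quantified by sandwich ELISA with TMB read-out; IC50 from 4-parameter logistic fit.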

[1] = biological target: human P-glycoprotein (P-gp, MDR1) (Homo sapiens (Human), UniProt P08183); test: MDCK-MDR1 cell monolayer drug transport assay (P-gp efflux ratio); type: in vitro ADME; details: pH 7.4, MDCK-MDR1 cells; for efflux ratio at 2 h, 1 µM: 1 uM concentration of compound, read-out: Pgp Efflux Ratio, 1 uM
Protocol: The potential for compounds prepared according to the examples to be substrates of P-gp was evaluated using in vitro on Multidrug Resistance Mutation 1-Mardin-Darby Canine Kidney (MDCK-MDR1)) (Mardin-Darby Canine Kidney) cell monolayers overexpressing P-gp grown on permeable supports.
Preparation for cell seeding: MDCK-MDR1 cell culture medium consisting of Dulbecco's Modified Eagle's Medium (DMEM) with high glucose and L-glutamine supplemented with: 10% FBS, 0.1 mg/mL of streptomycin, 0.6 μg/mL of Kanamycin sulfate and 100 units of penicillin was prepared. 50 μL of culture medium was added to each well of the Transwell insert. The Transwell insert was removed from the reservoir and 25 mL of culture medium was added. After incubation at 37° C., 5% CO2 for 1 hour, the plates were ready for cell seeding. The cells were cultivated in T-75 flasks in a cell culture incubator set at 37° C., 5% CO2, 95% relative humidity until they reached 80-90% confluence before detaching and splitting. The cultivated cells were rinsed in T-75 flasks with 5 mL PBS and aspirated off, and then 1.5 mL trypsin/EDTA was added and incubated at 37° C. for approximately 5 to 10 minutes or until the cells detach and float. The trypsin/EDTA was inactived by adding excess serum containing medium. The cell suspension was transferred to a conical tube and the cells pelleted by centrifugation at 120×g for 10 minutes. The cells were resuspended in seeding medium at a density of 1.56×10^6 cells/mL. This cell concentration was used to seed 5.45×10^5 cells/cm^2.
Seeding and feeding of MDCK-MDR1 cells into transwell plates: 50 μL of the above cell suspension was added to each well of a previously prepared Transwell plate and the plate was incubated for 4-8 days, replacing the medium every other day beginning no sooner than 48 hours after initial plating. The medium must be replaced on the day before conducting the experiment, and the procedure for medium changes was carried out as follows. The plate was removed from the incubator and placed in a hood. The medium was aspirated from a reservoir and each Transwell was inserted. 100 μL of culture medium was added to each well of the Transwell inserts and 25 mL of culture medium to reservoir tray. The plate was returned to the incubator.
Assessment of cell monolayer integrity: When the 4-day cultured MDCK-MDR1 cells reached confluence and were differentiated, the medium was removed from the reservoir and Transwell inserts. 100 μL of prewarmed culture medium was added to each transwell insert and 25 mL was added to the reservoir tray. The electrical resistance across the monolayer was measured using a Millicell Epithelial Volt-Ohm measuring system. The electrical resistance for each well was measured and then the plate was returned to the incubator. TEER values were calculated using this formula: TEER measurement (ohms)×Area of membrane (cm2)=TEER value (ohm cm2). Any monolayer with a TEER value <42 ohms·cm2, indicating poor monolayer formation, was discarded.
Performing the drug transport assay: The MDCK-MDR1 plate was removed from the incubator and the monolayer was washed, exchanging the volume two times using pre-warmed HBSS (Hank's balanced salt solution) (10 mM HEPES, pH 7.4). The plate was then incubated at 37° C. for 30 minutes. A 1 μM compound working solution was prepared as follows: Added […] of stock solution (10 mM in DMSO) of test compound and control compounds (Metoprolol, Prazosin and Imatinib) in one 96 well plate, then added 98 μL of DMSO into the same well to obtain 0.2 mM stock solutions (note a stock solution was further diluted 1:10 for eventually making a 0.1 uM compound working solution). Transfered 3 μL of 0.2 mM solution into 597 μL of transport buffer in one 96 well plate to prepare the 1 μM compound working solution. The plate was shaken at 1000 rpm for 10 min.

human P-glycoprotein (P-gp, MDR1), sequence (P08183 whole entry): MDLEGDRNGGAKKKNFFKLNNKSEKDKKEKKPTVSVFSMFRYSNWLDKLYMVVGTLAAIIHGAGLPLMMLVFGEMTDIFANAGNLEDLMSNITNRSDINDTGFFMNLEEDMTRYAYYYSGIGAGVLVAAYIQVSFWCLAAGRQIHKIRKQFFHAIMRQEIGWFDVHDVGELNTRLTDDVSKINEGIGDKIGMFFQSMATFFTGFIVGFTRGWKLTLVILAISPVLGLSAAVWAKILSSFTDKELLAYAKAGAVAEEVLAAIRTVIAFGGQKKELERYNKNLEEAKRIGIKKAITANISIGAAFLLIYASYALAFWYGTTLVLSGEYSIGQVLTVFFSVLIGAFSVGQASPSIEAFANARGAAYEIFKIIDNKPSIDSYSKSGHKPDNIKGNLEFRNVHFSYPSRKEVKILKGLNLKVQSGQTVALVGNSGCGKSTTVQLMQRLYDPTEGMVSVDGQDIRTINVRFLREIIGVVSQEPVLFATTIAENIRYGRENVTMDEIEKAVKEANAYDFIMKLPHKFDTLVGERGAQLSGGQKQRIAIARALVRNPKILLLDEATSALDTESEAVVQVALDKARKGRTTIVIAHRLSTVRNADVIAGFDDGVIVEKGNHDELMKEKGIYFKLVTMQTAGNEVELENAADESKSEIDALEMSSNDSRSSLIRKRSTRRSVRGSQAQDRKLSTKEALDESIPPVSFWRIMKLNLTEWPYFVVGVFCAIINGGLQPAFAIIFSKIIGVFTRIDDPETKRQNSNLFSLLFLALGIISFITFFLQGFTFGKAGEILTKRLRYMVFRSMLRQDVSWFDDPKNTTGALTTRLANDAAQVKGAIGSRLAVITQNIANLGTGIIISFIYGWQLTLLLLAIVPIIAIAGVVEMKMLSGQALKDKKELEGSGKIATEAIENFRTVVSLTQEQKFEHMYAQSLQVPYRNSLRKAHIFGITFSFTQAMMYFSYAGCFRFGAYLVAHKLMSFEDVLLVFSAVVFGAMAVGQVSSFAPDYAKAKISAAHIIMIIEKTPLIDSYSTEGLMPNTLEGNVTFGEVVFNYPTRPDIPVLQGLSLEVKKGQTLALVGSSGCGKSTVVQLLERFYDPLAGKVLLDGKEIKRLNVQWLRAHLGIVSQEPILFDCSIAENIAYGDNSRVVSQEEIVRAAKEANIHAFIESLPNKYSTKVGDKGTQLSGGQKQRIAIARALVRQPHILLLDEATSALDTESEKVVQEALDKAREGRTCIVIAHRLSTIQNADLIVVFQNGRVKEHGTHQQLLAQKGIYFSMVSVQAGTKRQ
wild type c-kit, sequence (P10721 26-976): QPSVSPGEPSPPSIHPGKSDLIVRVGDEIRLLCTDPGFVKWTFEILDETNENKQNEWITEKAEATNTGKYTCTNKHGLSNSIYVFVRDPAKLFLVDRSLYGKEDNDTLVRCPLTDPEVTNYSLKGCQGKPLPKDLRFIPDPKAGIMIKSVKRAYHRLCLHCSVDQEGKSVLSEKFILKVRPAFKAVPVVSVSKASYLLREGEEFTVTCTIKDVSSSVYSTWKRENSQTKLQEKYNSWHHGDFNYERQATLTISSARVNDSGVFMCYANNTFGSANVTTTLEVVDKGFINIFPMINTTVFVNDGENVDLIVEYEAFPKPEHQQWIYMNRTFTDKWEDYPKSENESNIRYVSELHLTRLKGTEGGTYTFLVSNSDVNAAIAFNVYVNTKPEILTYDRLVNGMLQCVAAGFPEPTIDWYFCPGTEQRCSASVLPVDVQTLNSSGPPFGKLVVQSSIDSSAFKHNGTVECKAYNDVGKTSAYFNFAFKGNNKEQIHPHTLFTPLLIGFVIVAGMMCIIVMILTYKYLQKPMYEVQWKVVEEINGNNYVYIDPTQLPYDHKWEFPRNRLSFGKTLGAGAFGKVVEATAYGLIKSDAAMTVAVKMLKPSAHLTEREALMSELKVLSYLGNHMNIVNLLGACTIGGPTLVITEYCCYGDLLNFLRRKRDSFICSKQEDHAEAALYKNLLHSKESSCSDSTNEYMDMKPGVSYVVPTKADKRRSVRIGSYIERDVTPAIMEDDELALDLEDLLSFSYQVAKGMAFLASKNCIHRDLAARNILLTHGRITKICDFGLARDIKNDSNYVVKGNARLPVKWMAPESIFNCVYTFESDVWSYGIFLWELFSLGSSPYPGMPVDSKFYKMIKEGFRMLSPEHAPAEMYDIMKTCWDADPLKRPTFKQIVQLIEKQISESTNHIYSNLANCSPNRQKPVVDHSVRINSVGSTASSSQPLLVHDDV

SMILES | IC50 (wild type c-kit) [nM] | efflux ratio at 2 h, 1 µM [1] | efflux ratio at 2 h, 0.1 µM ([1]; 0.1 uM concentration of compound (denoted by **), read-out: Pgp Efflux Ratio)
COC(=O)N1CC(n2nnc(-c3ccc(C)c(NC(=O)c4cnn5ccc(OCCC(C)(C)O)cc45)c3)n2)C1 [Example 65, methyl 3-(5-(3-(5-(3-hydroxy-3-methylbutoxy)pyrazolo[1,5-a]pyridine-3-carboxamido)-4-methylphenyl)-2H-tetrazol-2-yl)azetidine-1-carboxylate] | 33.7 | 23.5 | 
COC(=O)N1CC(n2nnc(-c3ccc(C)c(NC(=O)c4cnn5ccc(N6CC[C@H]6CO)cc45)c3)n2)C1 [Example 90, methyl (S)-3-(5-(3-(5-(2-(hydroxymethyl)azetidin-1-yl)pyrazolo[1,5-a]pyridine-3-carboxamido)-4-methylphenyl)-2H-tetrazol-2-yl)azetidine-1-carboxylate] | 87.7 | 33.9 | 
COC[C@@](C)(O)Cn1cc(-c2ccn3ncc(C(=O)Nc4cc(-c5nnn(C6CC6)n5)ccc4C)c3c2)cn1 (single isomer, unassigned) [Example 268, (S)-N-(5-(2-cyclopropyl-2H-tetrazol-5-yl)-2-methylphenyl)-5-(1-(2-hydroxy-3-methoxy-2-methylpropyl)-1H-pyrazol-4-yl)pyrazolo[1,5-a]pyridine-3-carboxamide or (R)-N-(5-(2-cyclopropyl-2H-tetrazol-5-yl)-2-methylphenyl)-5-(1-(2-hydroxy-3-methoxy-2-methylpropyl)-1H-pyrazol-4-yl)pyrazolo[1,5-a]pyridine-3-carboxamide] | 1.6 | 5.2 | 
COCCNc1ccn2ncc(C(=O)Nc3cc(-c4nnn(C5CC(F)C5)n4)ccc3C)c2c1 (stereo not shown) [Example 151, N-(5-(2-(3-fluorocyclobutyl)-2H-tetrazol-5-yl)-2-methylphenyl)-5-((2-methoxyethyl)amino)pyrazolo[1,5-a]pyridine-3-carboxamide] | 4.1 | 4.8 | 
Cc1cc(F)c(-c2nnn(C3CC3)n2)cc1NC(=O)c1cnn2ccc(-c3cn(CC(C)(C)O)nc3C3CC3)cc12 [Example 241, 5-(3-cyclopropyl-1-(2-hydroxy-2-methylpropyl)-1H-pyrazol-4-yl)-N-(5-(2-cyclopropyl-2H-tetrazol-5-yl)-4-fluoro-2-methylphenyl)pyrazolo[1,5-a]pyridine-3-carboxamide] | 0.2 |  | 6.3
Cc1ccc(-c2nnn(C3CC3)n2)cc1NC(=O)c1cnn2ccc(-c3cnn(CC4(O)CCOCC4)c3)cc12 [Example 206, N-(5-(2-cyclopropyl-2H-tetrazol-5-yl)-2-methylphenyl)-5-(1-((4-hydroxytetrahydro-2H-pyran-4-yl)methyl)-1H-pyrazol-4-yl)pyrazolo[1,5-a]pyridine-3-carboxamide] | 1.2 | 22.6 | 
C[C@](O)(CO)Cn1cc(-c2ccn3ncc(C(=O)Nc4cc(-c5nnn(C6CC6)n5)ccc4Cl)c3c2)cn1 [Example 266, (R)-N-(2-chloro-5-(2-cyclopropyl-2H-tetrazol-5-yl)phenyl)-5-(1-(2,3-dihydroxy-2-methylpropyl)-1H-pyrazol-4-yl)pyrazolo[1,5-a]pyridine-3-carboxamide] | 0.3 | 3.4 | 
COCCOc1ccc2c(C(=O)Nc3cc(-c4nnn(C5CN(C(=O)OC)C5)n4)ccc3C)cnn2c1 [Example 143, methyl 3-(5-(3-(6-(2-methoxyethoxy)pyrazolo[1,5-a]pyridine-3-carboxamido)-4-methylphenyl)-2H-tetrazol-2-yl)azetidine-1-carboxylate] | 10.5 | 4 | 
Cc1ccc(-c2nnn(C3CC3)n2)cc1NC(=O)c1cnn2ccc(-c3c(C)nn(CCO)c3C)cc12 [Example 208, N-(5-(2-cyclopropyl-2H-tetrazol-5-yl)-2-methylphenyl)-5-(1-(2-hydroxyethyl)-3,5-dimethyl-1H-pyrazol-4-yl)pyrazolo[1,5-a]pyridine-3-carboxamide] | 0.4 | 4.1 | 
CCS(=O)(=O)N1CC(n2nnc(-c3ccc(C)c(NC(=O)c4cnn5ccccc45)c3)n2)C1 [Example 173, N-(5-(2-(1-(ethylsulfonyl)azetidin-3-yl)-2H-tetrazol-5-yl)-2-methylphenyl)pyrazolo[1,5-a]pyridine-3-carboxamide] | 12 | 3.5 | 
Cc1ccc(-c2nnn(C3CN(S(C)(=O)=O)C3)n2)cc1NC(=O)c1cnn2ccc(COCC(F)F)cc12 [Example 154, 5-((2,2-difluoroethoxy)methyl)-N-(2-methyl-5-(2-(1-(methylsulfonyl)azetidin-3-yl)-2H-tetrazol-5-yl)phenyl)pyrazolo[1,5-a]pyridine-3-carboxamide] | 18.8 | 37.6 | 
COCCOCCNc1ccn2ncc(C(=O)Nc3cc(-c4nnn(C5CN(C(=O)OC)C5)n4)ccc3C)c2c1 [Example 146, methyl 3-(5-(3-(5-((2-(2-methoxyethoxy)ethyl)amino)pyrazolo[1,5-a]pyridine-3-carboxamido)-4-methylphenyl)-2H-tetrazol-2-yl)azetidine-1-carboxylate] | 88.8 | 15.4 | 
Cc1cc(F)c(-c2nnn(C3CC3)n2)cc1NC(=O)c1cnn2ccc(-c3cnn(CC(C)(C)O)c3C)cc12 [Example 240, N-(5-(2-cyclopropyl-2H-tetrazol-5-yl)-4-fluoro-2-methylphenyl)-5-(1-(2-hydroxy-2-methylpropyl)-5-methyl-1H-pyrazol-4-yl)pyrazolo[1,5-a]pyridine-3-carboxamide] | 0.6 | 7.4 | 
COC(=O)N1CC(n2nnc(-c3ccc(C)c(NC(=O)c4cnn5ccc(N6CC[C@@H](N(C)C)C6)cc45)c3)n2)C1 [Example 97, methyl (R)-3-(5-(3-(5-(3-(dimethylamino)pyrrolidin-1-yl)pyrazolo[1,5-a]pyridine-3-carboxamido)-4-methylphenyl)-2H-tetrazol-2-yl)azetidine-1-carboxylate] | 112 | 23.2 | 
Cc1ccc(-n2nnc(C3CC3)n2)cc1NC(=O)c1cnn2ccc(-c3cnn(CC(C)(C)O)c3)cc12 [Example 225, N-(5-(5-cyclopropyl-2H-tetrazol-2-yl)-2-methylphenyl)-5-(1-(2-hydroxy-2-methylpropyl)-1H-pyrazol-4-yl)pyrazolo[1,5-a]pyridine-3-carboxamide] | 1.7 | 3.3 | 
COCCNc1ccc2c(C(=O)Nc3cc(-c4nnn(C5CN(C(=O)OC)C5)n4)ccc3Cl)cnn2c1 [Example 157, methyl 3-(5-(4-chloro-3-(6-((2-methoxyethyl)amino)pyrazolo[1,5-a]pyridine-3-carboxamido)phenyl)-2H-tetrazol-2-yl)azetidine-1-carboxylate] | 6.4 | 5.9 | 
COCCNc1ccn2ncc(C(=O)Nc3cc(-n4nnc(C5CN(C(=O)OC)C5)n4)ccc3Cl)c2c1 [Example 113, methyl 3-(2-(4-chloro-3-(5-((2-methoxyethyl)amino)pyrazolo[1,5-a]pyridine-3-carboxamido)phenyl)-2H-tetrazol-5-yl)azetidine-1-carboxylate] | 6.4 | 3.4 | 
